One data set has as its target PI3K alpha (Homo sapiens, UniProt P42336). The data set can be described thus: PI3K-alpha Fluorescence Polarization Assay. The class given is biochemical.
The nature of data set [1]: Microsome Stability (15 min), human. It is filed as in vitro ADME. The settings on record: microsomes, Phase I (NADPH), read-out: Microsome Stability (15 min) T ½ Phase I human.
Data set [2] is described as follows: Microsome Stability (15 min), rat. The class given is in vitro ADME. The settings on record: microsomes, Phase I (NADPH), read-out: Microsome Stability (15 min) T ½ Phase I rat.
The nature of a further data set: physchem. The settings on record: pH 7.4, aqueous buffer.
The nature of data set [3]: PAMPA permeability pH 7.4. (The PAMPA barrier holds no transporters, so it reflects passive diffusion.)
Data set [4] in a line: Buffer Stability (37° C.).
The nature of data set [5]: Plasma Stability (37° C.), rat.
A short description of data set [6]: Plasma Stability (37° C.), nude mouse.
Data set [7] in a line: In vivo blood/plasma and tumor levels of prodrug and metabolites after 50 mg, kg po. The conditions noted are these: 50 mg.
Data set [8] concerns the target T1, mTOR (Homo sapiens, UniProt P42345). Description: mTOR Enzyme Assay (DELFIA, purified enzyme). It is filed as biochemical. The arrangement: FLAG. The settings on record: read-out: mTOR Mean IC50.
Data set [9] can be described thus: CACO2 permeability a-b/b-a. The settings on record: human, Caco-2. It is filed as in vitro ADME. A general note: Caco-2 monolayers are a common model of the intestinal barrier.
Data set [10] is described as follows: Microsome Stability (15 min), nude mouse. The conditions noted are these: microsomes, Phase I (NADPH), read-out: Microsome Stability (15 min) T ½ Phase I nude mouse. The class given is in vitro ADME.
In data set [11] the test system is human tumor xenograft models. The conditions noted are these: cited from earlier work.
Data set [12] has as its system acute lymphoblastic leukemia. The settings on record: in vivo; cited from earlier work.
Data set [13] addresses T1, mTOR. The settings on record: read-out: mTOR IC50; mTOR complexes / mTOR enzymes; cited from earlier work.

Converted amounts (≈) assume the structure as drawn. Where two headings read alike, the source gives them in different places.

PI3K alpha, sequence (P42336 whole entry, species assumed): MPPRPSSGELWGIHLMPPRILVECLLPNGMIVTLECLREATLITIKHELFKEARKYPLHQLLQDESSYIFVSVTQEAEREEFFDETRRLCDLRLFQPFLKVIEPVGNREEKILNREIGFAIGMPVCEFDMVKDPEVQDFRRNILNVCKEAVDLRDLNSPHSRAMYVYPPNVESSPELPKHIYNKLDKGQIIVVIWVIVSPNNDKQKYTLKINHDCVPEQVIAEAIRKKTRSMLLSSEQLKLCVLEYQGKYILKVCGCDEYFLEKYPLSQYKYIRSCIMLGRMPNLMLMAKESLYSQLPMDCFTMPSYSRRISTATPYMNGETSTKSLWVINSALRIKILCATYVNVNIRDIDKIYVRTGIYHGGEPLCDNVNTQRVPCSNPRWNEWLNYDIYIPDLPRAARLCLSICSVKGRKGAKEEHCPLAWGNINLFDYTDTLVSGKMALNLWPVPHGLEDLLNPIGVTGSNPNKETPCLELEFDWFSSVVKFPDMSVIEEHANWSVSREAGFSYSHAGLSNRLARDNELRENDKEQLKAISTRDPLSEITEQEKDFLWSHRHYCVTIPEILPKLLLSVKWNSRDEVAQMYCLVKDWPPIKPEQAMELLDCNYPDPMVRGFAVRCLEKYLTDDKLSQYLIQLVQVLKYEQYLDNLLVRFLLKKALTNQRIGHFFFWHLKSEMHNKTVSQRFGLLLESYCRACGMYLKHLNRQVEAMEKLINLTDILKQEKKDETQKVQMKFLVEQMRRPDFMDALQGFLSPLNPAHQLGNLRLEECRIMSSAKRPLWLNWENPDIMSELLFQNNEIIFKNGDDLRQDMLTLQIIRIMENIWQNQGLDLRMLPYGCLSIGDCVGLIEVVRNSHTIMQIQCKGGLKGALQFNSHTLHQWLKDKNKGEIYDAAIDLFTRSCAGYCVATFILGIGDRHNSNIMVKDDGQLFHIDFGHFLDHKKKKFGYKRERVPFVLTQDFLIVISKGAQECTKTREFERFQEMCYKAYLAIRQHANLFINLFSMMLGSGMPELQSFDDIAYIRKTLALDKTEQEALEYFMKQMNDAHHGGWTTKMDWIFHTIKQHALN
PI3K alpha, sequence (P27986 whole entry partner, species assumed): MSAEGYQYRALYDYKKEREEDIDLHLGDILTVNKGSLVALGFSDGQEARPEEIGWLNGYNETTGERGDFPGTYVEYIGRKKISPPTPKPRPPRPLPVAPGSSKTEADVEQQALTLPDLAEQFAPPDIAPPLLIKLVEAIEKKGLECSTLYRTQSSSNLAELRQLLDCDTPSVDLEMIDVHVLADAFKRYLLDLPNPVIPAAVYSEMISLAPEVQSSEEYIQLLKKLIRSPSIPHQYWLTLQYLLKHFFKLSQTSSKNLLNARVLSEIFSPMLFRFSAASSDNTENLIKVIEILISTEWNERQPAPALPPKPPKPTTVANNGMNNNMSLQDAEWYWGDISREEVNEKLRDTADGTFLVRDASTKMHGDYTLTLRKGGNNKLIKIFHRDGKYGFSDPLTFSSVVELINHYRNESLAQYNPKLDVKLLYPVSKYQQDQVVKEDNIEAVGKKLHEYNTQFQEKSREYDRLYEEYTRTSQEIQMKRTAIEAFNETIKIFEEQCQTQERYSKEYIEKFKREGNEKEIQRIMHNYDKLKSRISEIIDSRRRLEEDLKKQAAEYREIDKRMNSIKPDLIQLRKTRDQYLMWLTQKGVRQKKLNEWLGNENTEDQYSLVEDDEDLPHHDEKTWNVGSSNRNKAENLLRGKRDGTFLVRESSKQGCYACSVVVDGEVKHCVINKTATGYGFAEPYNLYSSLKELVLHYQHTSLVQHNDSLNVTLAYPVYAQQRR

In general, IC50 refers to the point on the concentration scale where inhibition reaches its midpoint. For orientation: solubility means the dissolved amount per volume that the medium holds. The low end stands for a poorly soluble substance, the high end for a readily soluble substance. Consider `COc1ccc2[nH]c(-c3ccccc3)c(/C=C3\Oc4cc(OC(=O)N(c5ccccc5)c5ccccc5)cc(OC(=O)N(c5ccccc5)c5ccccc5)c4C3=O)c2c1` [Example 11, (2Z)-2-[(5-methoxy-2-phenyl-1H-indol-3-yl)methylene]-3-oxo-2,3-dihydro-1-benzofuran-4,6-diyl bis(diphenylcarbamate)], for which the 50% inhibitory concentration (IC50) on PI3K alpha (read-out: PI3K alpha Mean IC50) is > 5.05 µM. In data set [1], the half-life stood at 23 min. In addition, the half-life in data set [2] was > 30 min. The compound also returned a solubility in “physchem” of 1 µg/mL (≈ 1.27 µM). The “PAMPA Pe” value in data set [3] is listed as 1.14 10e−6 cm/s. Moreover, in data set [4], the “Buffer Stability (37° C.) % Remaining (at 16-23 hours) SGF” value was found to be 100%, the “Buffer Stability (37° C.) % Remaining (at 16-23 hours) SIF” value is on record as 98%, the “Buffer Stability (37° C.) % Remaining (at 16-23 hours) pH 1” value was 99% and the “Buffer Stability (37° C.) % Remaining (at 16-23 hours) pH 4.5” value turned out to be 103%. In addition, in data set [4], the “Buffer Stability (37° C.) % Remaining (at 16-23 hours) pH 6.6” value is 100%, the “Buffer Stability (37° C.) % Remaining (at 16-23 hours) pH 7.4” value worked out at 100% and the “Buffer Stability (37° C.) % Remaining (at 16-23 hours) pH 9” value was determined as 89%. Moreover, the “Plasma Stability (37° C.) % Remaining (3-3.5 hours) rat” value in [5] worked out at 95%. Further, the “Plasma Stability (37° C.) % Remaining (3-3.5 hours) nude mouse” value in data set [6] was 85%. In [7] (0.5 h), the plasma prodrug concentration entry is “bql, bql”. The plasma prodrug concentration result in data set [7] (2 h) was “bql, bql”.
Take `COc1ccc2[nH]c(-c3ccccc3)c(/C=C3\Oc4cc(OP(=O)(O)O)ccc4C3=O)c2c1` [Example 27, (2Z)-2-[(5-methoxy-2-phenyl-1H-indol-3-yl)methylene]-3-oxo-2,3-dihydro-1-benzofuran-6-yl dihydrogen phosphate]: the concentration for half-maximal inhibition (IC50) on PI3K alpha (read-out: PI3K alpha Mean IC50) worked out at 0.123 µM; on mTOR [8], 2.45 µM. In addition, in data set [2], the half-life came out at 19 min. Besides, in “physchem”, the solubility is 65 µg/mL. In addition, in data set [3], the “PAMPA Pe” value is 0 10e−6 cm/s.
As to `COc1ccc2[nH]c(-c3ccccc3)c(/C=C3\Oc4cc(OP(=O)(O)O)cc(OP(=O)(O)O)c4C3=O)c2c1` [Example 38, (2Z)-2-[(5-methoxy-2-phenyl-1H-indol-3-yl)methylene]-3-oxo-2,3-dihydro-1-benzofuran-4,6-diyl bis[dihydrogen (phosphate)]], the IC50 is 0.89 µM on PI3K alpha (read-out: PI3K alpha Mean IC50) and 0.985 µM on mTOR [8]. In “physchem”, the solubility was > 100 µg/mL. Further, the “PAMPA Pe” value in [3] is 0.01 10e−6 cm/s.
In the case of `CN(C)C(=O)Oc1cc(OC(=O)N(C)C)c2c(c1)O/C(=C\c1cn(C)c3cccc(-c4ccccc4)c13)C2=O` [Example 48, (2Z)-2-[(1-methyl-4-phenyl-1H-indol-3-yl)methylene]-3-oxo-2,3-dihydro-1-benzofuran-4,6-diyl bis(dimethylcarbamate)], the IC50 against PI3K alpha was > 10 µM. In data set [9] (a − b (first value of cell), read-out: CACO2 Pe a − b), the Papp A→B was 0.5 ×10⁻⁶ cm/s. In addition, the Papp B→A in data set [9] (b − a (second value of cell), read-out: CACO2 Pe b − a) amounted to 0.5 ×10⁻⁶ cm/s. Also, the half-life in data set [1] turned out to be 25 min. Also, the half-life in data set [10] came out at 14 min. For the same compound, the IC50 at mTOR [8] was 3.15 µM. Further, in data set [3], the “PAMPA Pe” value is on record as “Undetected”. In [4], the “Buffer Stability (37° C.) % Remaining (at 16-23 hours) SGF” value was found to be 100%, the “Buffer Stability (37° C.) % Remaining (at 16-23 hours) SIF” value is listed as 100%, the “Buffer Stability (37° C.) % Remaining (at 16-23 hours) pH 1” value worked out at 100% and the “Buffer Stability (37° C.) % Remaining (at 16-23 hours) pH 4.5” value worked out at 100%. Further, in [4], the “Buffer Stability (37° C.) % Remaining (at 16-23 hours) pH 6.6” value was found to be 100%, the “Buffer Stability (37° C.) % Remaining (at 16-23 hours) pH 7.4” value was 100% and the “Buffer Stability (37° C.) % Remaining (at 16-23 hours) pH 9” value stood at 100%. In addition, in data set [5], the “Plasma Stability (37° C.) % Remaining (3-3.5 hours) rat” value is >100%. In addition, the “Plasma Stability (37° C.) % Remaining (3-3.5 hours) nude mouse” value in data set [6] turned out to be 80%.
As to `Cn1c(=O)n(-c2ccc(C(C)(C)C#N)cc2)c2c3cc(-c4cnc5ccccc5c4)ccc3ncc21` [NVP-BEZ-235, 2-methyl-2-(4-(3-methyl-2-oxo-8-(quinolin-3-yl)-2,3-dihydro-1H-imidazo[4,5-c]quinolin-1-yl)phenyl)propanenitrile], in data set [11] (prostrate (PC-3) and glioblastoma (U-87)), the “activity in human tumor xenograft models” value is listed as “demonstrated activity”.
For `Oc1cccc(-c2nc(N3CCOCC3)c3oc4ncccc4c3n2)c1` [PI103, 3-(4-(4-morpholinyl)pyrido[3′,′: 4,5]furo[3,2-d]pyrimidin-2-yl)phenol], in data set [11] (I.P. dosing in mice, U87MG, PC3, MDA-MB-468, MDA-MB-435, HCT 116, SKOV3, IGROV-1), the “activity in human tumor xenograft models” value was “demonstrated activity”.
On to `CO[C@H]1C[C@@H]2CC[C@@H](C)[C@@](O)(O2)C(=O)C(=O)N2CCCC[C@H]2C(=O)O[C@H]([C@H](C)C[C@@H]2CC[C@@H](OC(=O)C(C)(CO)CO)[C@H](OC)C2)CC(=O)[C@H](C)/C=C(\C)[C@@H](O)[C@@H](OC)C(=O)[C@H](C)C[C@H](C)/C=C/C=C/C=C/1C` [Torisel], for which, in data set [12], the “activity in NOS/SCID xenograft mouse model of acute lymphoblastic leukemia” value is recorded as “active”.
On to `FC(F)c1nc2ccccc2n1-c1nc(N2CCOCC2)nc(N2CCOCC2)n1` [ZSTK474, 2-(2-difluoromethylbenzoimidazol-1-yl)-4,6-dimorpholino-1,3,5-triazine], for which the “tumor growth in mouse human xenograft cancer models” value in [11] (chronic oral administration, 400 mg/kg, A549, PC-3, WiDr) is listed as “completely inhibited growth”. At mTOR [13], the IC50 was > 10 µM.

These data come from patent US20100061982A1, “3-SUBSTITUTED-1H-INDOLE, 3-SUBSTITUTED-1H-PYRROLO[2,3-B]PYRIDINE AND 3-SUBSTITUTED-1H-PYRROLO[3,2-B]PYRIDINE COMPOUNDS, THEIR USE AS MTOR KINASE AND PI3 KINASE INHIBITORS, AND THEIR SYNTHESES” (priority 2008, published 2010).
